This is an account of results in article PMC8304761, “Development of an Androgen Receptor Inhibitor Targeting the N-Terminal Domain of Androgen Receptor for Treatment of Castration Resistant Prostate Cancer” (Cancers, 2021).

As a reminder, the IC50 is the midpoint of a concentration-inhibition curve.

Structures are written as SMILES.

For one assay, the system named is 22Rv1 cells. Nature of the assay: Proliferation assay (PrestoBlue), 22Rv1. In kind it is cell-based. The following applies: Homo sapiens, 72 h, Figure 2D, read-out: IC50, viability of 22Rv1 cells. The protocol: (§1) Proliferation assay: LNCaP, 22Rv1 and PC3 cells were plated at 3000 cells per well in RPMI1640 containing 5% CSS in a 96-well plate, treated with 0.1 nm R1881 (a synthetic androgen) and test compounds (0–25 μM) for 72 h. Cell proliferation was determined using the PrestoBlue^TM cell proliferation assay following incubation with the compound […] over 72 h. In brief, 30 μL of the PrestoBlue^TM reagent was added to cells in each well of the 96-well plate containing 200 μL of media and incubated for 60 min at 37 °C in 5% CO2. The production of […]. Fluorescence measurement was read on a TECAN F200.
(§2) We then evaluated the effect of VPC-220010 on the proliferation of androgen-dependent LNCaP and ARV7-dependent 22Rv1 cells.

The next assay deals with LNCaP cells. In words: Proliferation assay (PrestoBlue), LNCaP. The class given is cell-based. The following applies: Homo sapiens, 72 h, R1881, Figure 2C, read-out: IC50, viability of LNCaP cells. How it is done: as §1, §2
The target of another assay is T1, AR-NTD (Gal4DBD-AR1-558) (Homo sapiens, UniProt P10275).
T1 construct: expressed in transfected cells; host or cells: LNCaP
T1 sequence (P10275 1-558): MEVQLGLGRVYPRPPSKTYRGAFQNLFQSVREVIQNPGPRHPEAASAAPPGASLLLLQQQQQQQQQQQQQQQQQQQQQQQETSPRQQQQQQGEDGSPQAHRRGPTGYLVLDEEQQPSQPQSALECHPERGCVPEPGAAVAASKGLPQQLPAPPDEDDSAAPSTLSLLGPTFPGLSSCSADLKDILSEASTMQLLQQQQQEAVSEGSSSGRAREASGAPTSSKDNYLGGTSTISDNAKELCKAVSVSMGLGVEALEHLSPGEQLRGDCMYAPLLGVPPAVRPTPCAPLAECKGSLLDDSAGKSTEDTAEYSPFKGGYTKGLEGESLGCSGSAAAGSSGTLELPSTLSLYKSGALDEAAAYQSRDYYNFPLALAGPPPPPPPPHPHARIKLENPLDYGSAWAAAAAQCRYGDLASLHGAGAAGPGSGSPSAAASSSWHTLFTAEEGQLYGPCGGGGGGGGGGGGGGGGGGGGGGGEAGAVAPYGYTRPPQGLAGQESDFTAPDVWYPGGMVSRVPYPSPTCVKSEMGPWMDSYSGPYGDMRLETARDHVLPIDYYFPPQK
In words: NTD-transactivation assay (mammalian two hybrid, forskolin) in LNCaP cells. The class given is cell-based. The following applies: varying concentrations; Figure 3. How it is done: Following 48 h incubation, cells were then treated with compounds at various concentrations and 0.1 nm R1881 (in 100% ethanol) for 24 h for AR assays. GR, ER, and PR activation was stimulated with 1 nm dexamethasone, estradiol, or progesterone, respectively. […] Cell lysis was carried out with 60 μL of 1× passive lysis buffer/well (Promega Madison, WI, USA). 20 μL of cell lysate from each well were mixed with 50 μL of luciferase assay reagent (Promega Madison, WI, USA), and luminescence was recorded on a TECAN M200pro plate reader.
To confirm the proposed mechanism of VPC-220010 we tested the effect of this compound on NTD-mediated transactivation. […] When incubated with forskolin, this system induces transcription activity through phosphorylation of the AR-NTD [10].

The test system of assay [1] is ARV7-regulated genes UBE2C, AKT1 and CDC20. In words: qPCR of ARV7-regulated genes in 22Rv1 cells. The class given is cell-based, human. The note with it: Figure 5B. For orientation: In qPCR the cycle at which signal appears reflects the starting amount.
Procedure: Total RNA was extracted from cells with Trizol and the Qiagen RNeasy RNA Extraction Kit (Qiagen Germantown, MD, USA). Approximately 8 × 10^6 cells were collected per sample, with three biological replicates for each treatment. The concentrations and the qualities of the RNA samples were checked by Nanodrop. cDNA was prepared busing MMLV-Reverse Transcriptase (Thermo Fisher Scientific, Waltham, MA, USA). qRT-PCR was performed with LightCycler® 480 SYBR Green I Master (Roche, Basel, Switzerland).
Assay [2] has as its system prostate specific antigen (PSA). Nature of the assay: Secreted PSA levels in LNCaP cells. The note with it: Homo sapiens; LNCaP cells; read-out: IC50, secreted PSA levels. In kind it is cell-based. The source says:
Next, we tested the activity of VPC-220010 against full length AR using an AR-eGFP transcription assay in LNCaP cells. […] To further validate VPC-220010 as an AR inhibitor, we evaluated its ability to reduce the production of endogenous prostate specific antigen (PSA) in PCa cell lines. PSA is an AR-regulated serine protease and is widely used as a biomarker for PCa.

The next assay relates to PSA. Further details: method as in doi:10.1200/JCO.2019.37.7_suppl.257. The following applies: patients, metastatic CRPC, low levels of circulating EPI-506; cited from earlier work.

Consider `CC(C)(c1ccc(OCC(O)CO)cc1)c1ccc(OCC(O)CCl)cc1` (stereo not drawn) [EPI-001, reference compound], for which the values for the IC50 (in the assay on 22Rv1 cells; with LNCaP cells; in assay [2]) were > 50 µM, > 25 µM and > 25 µM, respectively. Moreover, at AR-NTD (Gal4DBD-AR1-558), the “AR-NTD activity induced by forskolin” value was “inhibited”. In assay [1], the “expression of ARV7-regulated genes UBE2C, AKT1 and CDC20 (qPCR)” value was “inhibited”.

`CC(=O)OC[C@H](COc1ccc(C(C)(C)c2ccc(OC[C@@H](CCl)OC(C)=O)cc2)cc1)OC(C)=O` [EPI-506]: the “decrease in PSA” value in the assay with PSA was 4–29%.
